Conditions: Hot wire method

C=C(F)C(F)(F)F [2,3,3,3-tetrafluoro-1-propene]
Conditions	thermal conductivity [W/m/K]
303.53 K, 5728 kPa, Liquid	0.06591
303.55 K, 638 kPa, Gas	0.01428
303.58 K, 863 kPa, Liquid	0.06214
303.62 K, 95 kPa, Gas	0.01418
303.69 K, 16013 kPa, Liquid	0.0724
303.7 K, 10745 kPa, Liquid	0.06899
303.7 K, 20552 kPa, Liquid	0.07462
303.71 K, 509 kPa, Gas	0.0142
303.73 K, 5727 kPa, Liquid	0.06571
303.76 K, 199 kPa, Gas	0.01415
303.8 K, 863 kPa, Liquid	0.06166
303.93 K, 349 kPa, Gas	0.01413
304.07 K, 95 kPa, Gas	0.01428
304.07 K, 16014 kPa, Liquid	0.07249
304.07 K, 20551 kPa, Liquid	0.07457
304.1 K, 10744 kPa, Liquid	0.06936
304.15 K, 5727 kPa, Liquid	0.06587
304.2 K, 199 kPa, Gas	0.0142
304.24 K, 861 kPa, Liquid	0.06192
304.28 K, 20546 kPa, Liquid	0.07468
304.3 K, 16011 kPa, Liquid	0.07229
304.33 K, 10741 kPa, Liquid	0.069
304.39 K, 5724 kPa, Liquid	0.06553
304.5 K, 861 kPa, Liquid	0.06141
304.55 K, 95 kPa, Gas	0.01429
311.19 K, 200 kPa, Gas	0.01522
311.21 K, 97 kPa, Gas	0.01495
311.39 K, 298 kPa, Gas	0.01522
311.41 K, 200 kPa, Gas	0.01508
311.44 K, 97 kPa, Gas	0.01475
311.61 K, 298 kPa, Gas	0.01516
311.64 K, 200 kPa, Gas	0.01494
311.67 K, 98 kPa, Gas	0.01469
311.84 K, 298 kPa, Gas	0.01507
311.87 K, 877 kPa, Gas	0.01518
311.89 K, 200 kPa, Gas	0.01484
311.92 K, 97 kPa, Gas	0.01463
311.99 K, 676 kPa, Gas	0.01501
312.01 K, 610 kPa, Gas	0.01499
312.09 K, 298 kPa, Gas	0.01504
312.14 K, 200 kPa, Gas	0.01477
312.15 K, 876 kPa, Gas	0.01537
312.16 K, 409 kPa, Gas	0.0149
312.18 K, 97 kPa, Gas	0.01458
312.25 K, 298 kPa, Gas	0.01491
312.3 K, 675 kPa, Gas	0.01513
312.31 K, 610 kPa, Gas	0.01511
312.36 K, 200 kPa, Gas	0.01491
312.46 K, 875 kPa, Gas	0.01532
312.49 K, 408 kPa, Gas	0.01491
312.57 K, 97 kPa, Gas	0.01511
312.58 K, 298 kPa, Gas	0.01491
312.62 K, 673 kPa, Gas	0.01513
312.66 K, 608 kPa, Gas	0.01506
312.72 K, 200 kPa, Gas	0.01494
312.8 K, 873 kPa, Gas	0.01537
312.85 K, 408 kPa, Gas	0.01492
312.96 K, 298 kPa, Gas	0.01498
312.97 K, 97 kPa, Gas	0.01513
312.97 K, 673 kPa, Gas	0.01511
313.01 K, 607 kPa, Gas	0.01512
313.11 K, 200 kPa, Gas	0.01497
313.15 K, 872 kPa, Gas	0.01537
313.23 K, 408 kPa, Gas	0.01499
313.34 K, 672 kPa, Gas	0.01515
313.36 K, 298 kPa, Gas	0.01497
313.38 K, 608 kPa, Gas	0.01508
313.39 K, 98 kPa, Gas	0.01515
313.53 K, 200 kPa, Gas	0.015
313.62 K, 409 kPa, Gas	0.01501
313.78 K, 298 kPa, Gas	0.01501
313.83 K, 97 kPa, Gas	0.01516
313.96 K, 201 kPa, Gas	0.01503
314.3 K, 97 kPa, Gas	0.01518
321.31 K, 103 kPa, Gas	0.01573
321.31 K, 200 kPa, Gas	0.01591
321.31 K, 302 kPa, Gas	0.01608
321.46 K, 1449 kPa, Liquid	0.05663
321.54 K, 103 kPa, Gas	0.01562
321.54 K, 200 kPa, Gas	0.01577
321.54 K, 302 kPa, Gas	0.01588
321.56 K, 1449 kPa, Liquid	0.05669
321.75 K, 1115 kPa, Gas	0.0164
321.76 K, 302 kPa, Gas	0.01587
321.78 K, 103 kPa, Gas	0.01553
321.79 K, 200 kPa, Gas	0.01566
321.82 K, 1447 kPa, Liquid	0.05704
321.95 K, 1449 kPa, Liquid	0.05672
321.97 K, 6367 kPa, Liquid	0.06142
322.01 K, 302 kPa, Gas	0.01579
322.01 K, 11135 kPa, Liquid	0.06547
322.03 K, 200 kPa, Gas	0.0156
322.04 K, 103 kPa, Gas	0.01545
322.04 K, 1115 kPa, Gas	0.01641
322.11 K, 1199 kPa, Gas	0.01674
322.14 K, 959 kPa, Gas	0.01623
322.15 K, 16399 kPa, Liquid	0.06904
322.18 K, 862 kPa, Gas	0.0161
322.22 K, 1450 kPa, Liquid	0.05677
322.22 K, 6361 kPa, Liquid	0.06113
322.24 K, 721 kPa, Gas	0.01595
322.25 K, 302 kPa, Gas	0.01579
322.25 K, 21278 kPa, Liquid	0.07192
322.26 K, 11135 kPa, Liquid	0.06468
322.26 K, 16399 kPa, Liquid	0.06856
322.28 K, 617 kPa, Gas	0.01584
322.29 K, 200 kPa, Gas	0.01556
322.33 K, 103 kPa, Gas	0.01529
322.35 K, 1115 kPa, Gas	0.01644
322.36 K, 21276 kPa, Liquid	0.07119
322.37 K, 1451 kPa, Liquid	0.05654
322.37 K, 6358 kPa, Liquid	0.06119
322.38 K, 454 kPa, Gas	0.01579
322.39 K, 1199 kPa, Gas	0.01671
322.39 K, 11134 kPa, Liquid	0.06479
322.45 K, 958 kPa, Gas	0.01621
322.5 K, 861 kPa, Gas	0.01614
322.51 K, 302 kPa, Gas	0.01582
322.56 K, 720 kPa, Gas	0.01597
322.6 K, 16396 kPa, Liquid	0.06784
322.62 K, 617 kPa, Gas	0.01591
322.63 K, 6353 kPa, Liquid	0.06144
322.64 K, 201 kPa, Gas	0.01586
322.65 K, 1450 kPa, Liquid	0.05654
322.66 K, 11130 kPa, Liquid	0.06486
322.67 K, 1114 kPa, Gas	0.01646
322.69 K, 1199 kPa, Gas	0.01673
322.71 K, 21274 kPa, Liquid	0.0708
322.73 K, 453 kPa, Gas	0.01585
322.76 K, 958 kPa, Gas	0.01622
322.76 K, 16394 kPa, Liquid	0.06823
322.8 K, 6353 kPa, Liquid	0.06127
322.81 K, 103 kPa, Gas	0.01605
322.81 K, 11128 kPa, Liquid	0.06487
322.82 K, 860 kPa, Gas	0.01612
322.84 K, 1450 kPa, Liquid	0.05629
322.84 K, 21270 kPa, Liquid	0.07095
322.88 K, 302 kPa, Gas	0.01585
322.91 K, 720 kPa, Gas	0.01599
322.98 K, 616 kPa, Gas	0.01592
323 K, 200 kPa, Gas	0.01592
323 K, 1199 kPa, Gas	0.01678
323.01 K, 1114 kPa, Gas	0.01647
323.08 K, 11126 kPa, Liquid	0.06485
323.09 K, 6351 kPa, Liquid	0.06135
323.1 K, 453 kPa, Gas	0.0159
323.11 K, 957 kPa, Gas	0.01622
323.13 K, 1448 kPa, Liquid	0.05646
323.15 K, 16396 kPa, Liquid	0.06821
323.18 K, 859 kPa, Gas	0.01617
323.22 K, 103 kPa, Gas	0.01607
323.23 K, 21266 kPa, Liquid	0.07101
323.26 K, 11126 kPa, Liquid	0.06472
323.27 K, 719 kPa, Gas	0.016
323.28 K, 302 kPa, Gas	0.0159
323.28 K, 6351 kPa, Liquid	0.06102
323.33 K, 1199 kPa, Gas	0.01671
323.34 K, 614 kPa, Gas	0.01597
323.34 K, 1447 kPa, Liquid	0.05607
323.34 K, 16393 kPa, Liquid	0.06817
323.4 K, 200 kPa, Gas	0.01592
323.4 K, 21264 kPa, Liquid	0.07095
323.46 K, 956 kPa, Gas	0.01625
323.49 K, 453 kPa, Gas	0.01593
323.55 K, 858 kPa, Gas	0.01618
323.65 K, 103 kPa, Gas	0.01611
323.66 K, 718 kPa, Gas	0.01605
323.69 K, 302 kPa, Gas	0.01592
323.73 K, 612 kPa, Gas	0.01601
323.75 K, 16392 kPa, Liquid	0.06817
323.8 K, 21262 kPa, Liquid	0.07093
323.83 K, 200 kPa, Gas	0.01593
323.91 K, 453 kPa, Gas	0.01589
323.97 K, 16390 kPa, Liquid	0.068
324 K, 21259 kPa, Liquid	0.07084
324.11 K, 302 kPa, Gas	0.01598
324.12 K, 103 kPa, Gas	0.01612
324.29 K, 200 kPa, Gas	0.01599
324.62 K, 103 kPa, Gas	0.01618
331.07 K, 101 kPa, Gas	0.01664
331.09 K, 202 kPa, Gas	0.01678
331.12 K, 299 kPa, Gas	0.01699
331.29 K, 101 kPa, Gas	0.0165
331.3 K, 202 kPa, Gas	0.0167
331.34 K, 299 kPa, Gas	0.01685
331.53 K, 101 kPa, Gas	0.01639
331.54 K, 202 kPa, Gas	0.01658
331.56 K, 300 kPa, Gas	0.01677
331.78 K, 102 kPa, Gas	0.01632
331.78 K, 202 kPa, Gas	0.0165
331.8 K, 300 kPa, Gas	0.0167
331.8 K, 1511 kPa, Gas	0.01797
331.86 K, 1389 kPa, Gas	0.0177
331.9 K, 1236 kPa, Gas	0.01732
331.98 K, 1075 kPa, Gas	0.01717
332 K, 975 kPa, Gas	0.01697
332.04 K, 102 kPa, Gas	0.01627
332.04 K, 202 kPa, Gas	0.01642

Liquid
Conditions	thermal conductivity [W/m/K]
313.15 K	0.05899
323.15 K	0.05606

From the NIST ThermoML archive (doi:10.1021/je200811n)
